{"source": "patent US20020114786A1", "about": "“Pharmaceutical preparations comprising soybean isoflavone extracts and probiotic microogranisms” (priority 2000, published 2002)", "key": {"type II (β) receptors": {"test_system": "type II (β) receptors", "settings": "activity of estradiol set at 100; cited from earlier work"}, "Enterococcus faecium": {"test_system": "Enterococcus faecium", "test": "metabolism of soybean extract isoflavones in microbial culture, HPLC assay", "assay_type": "in vitro ADME", "experimental": "(§1) At each of these times, a sample is removed from the microbial cultures, diluted with an equal volume of methanol and then filtered. In each case, the methanolic solution is analyzed by high performance liquid chromatography. […] In this way, the contents of the aglycone and glycosylated forms in the metabolized extract are calculated with respect to the glycosylated forms (100%) in the initial extract."}, "[1]": {"test_system": "Lactobacillus acidophilus", "test": "metabolism of soybean extract isoflavones in microbial culture, HPLC assay", "assay_type": "in vitro ADME", "experimental": "as §1"}, "Lactobacillus brevis": {"test_system": "Lactobacillus brevis", "test": "metabolism of soybean extract isoflavones in microbial culture, HPLC assay", "assay_type": "in vitro ADME", "experimental": "as §1"}, "Lactobacillus casei": {"test_system": "Lactobacillus casei", "test": "metabolism of soybean extract isoflavones in microbial culture, HPLC assay", "assay_type": "in vitro ADME", "experimental": "as §1"}, "Lactobacillus plantarum": {"test_system": "Lactobacillus plantarum", "test": "metabolism of soybean extract isoflavones in microbial culture, HPLC assay", "assay_type": "in vitro ADME", "experimental": "as §1"}, "Lactobacillus rhamnosus": {"test_system": "Lactobacillus rhamnosus", "test": "metabolism of soybean extract isoflavones in microbial culture, HPLC assay", "assay_type": "in vitro ADME", "experimental": "as §1"}, "Pediococcus acidilactici": {"test_system": "Pediococcus acidilactici", "test": "metabolism of soybean extract isoflavones in microbial culture, HPLC assay", "assay_type": "in vitro ADME", "experimental": "as §1"}, "[2]": {"test_system": "Propionibacterium acidipropionici", "test": "metabolism of soybean extract isoflavones in microbial culture, HPLC assay", "assay_type": "in vitro ADME", "experimental": "as §1"}, "[3]": {"test_system": "Streptococcus thermophilus", "test": "metabolism of soybean extract isoflavones in microbial culture, HPLC assay", "assay_type": "in vitro ADME", "experimental": "as §1"}, "osteoclastic activity": {"test_system": "osteoclastic activity", "settings": "cited from earlier work"}, "bone": {"test_system": "bone", "settings": "cited from earlier work"}, "[4]": {"test": "selecting isoflavone-metabolizing microorganisms", "settings": "microbial culture with soybean extract", "experimental": "At each of these times, a sample is removed from the microbial cultures, diluted with an equal volume of methanol and then filtered. In each case, the methanolic solution is analyzed by high performance liquid chromatography. High performance liquid chromatography is used to assay daidzine, genistine, daidzein and genistein in the initial extract and in the media metabolized by the different microorganisms. In this way, the contents of the aglycone and glycosylated forms in the metabolized extract are calculated with respect to the glycosylated forms (100%) in the initial extract."}}, "note": "Read-outs that look alike come from different tables or passages of the source.", "data": [{"molecule": "O=c1c(-c2ccc(O)cc2)coc2cc(O)ccc12", "note": "[Daidzein, daidzein]", "values": [{"measurement": "estrogenic activity", "setting": "type II (β) receptors", "value": 0.013}]}, {"molecule": "O=c1c(-c2ccc(O)cc2)coc2cc(O[C@@H]3O[C@H](CO)[C@@H](O)[C@H](O)[C@H]3O)ccc12", "note": "[Daidzine, daidzine]", "values": [{"measurement": "content in the metabolized extract with respect to the glycosylated forms (100%) in the initial extract", "setting": "Enterococcus faecium; 72 h", "value": 0.1, "unit": "%"}, {"measurement": "content in the metabolized extract with respect to the glycosylated forms (100%) in the initial extract", "setting": "[1]", "value": 16, "unit": "%"}, {"measurement": "content in the metabolized extract with respect to the glycosylated forms (100%) in the initial extract", "setting": "Lactobacillus brevis", "value": 16, "unit": "%"}, {"measurement": "content in the metabolized extract with respect to the glycosylated forms (100%) in the initial extract", "setting": "Lactobacillus casei", "value": 80, "unit": "%"}, {"measurement": "content in the metabolized extract with respect to the glycosylated forms (100%) in the initial extract", "setting": "Lactobacillus plantarum", "value": 75, "unit": "%"}, {"measurement": "content in the metabolized extract with respect to the glycosylated forms (100%) in the initial extract", "setting": "Lactobacillus rhamnosus", "value": 26, "unit": "%"}, {"measurement": "content in the metabolized extract with respect to the glycosylated forms (100%) in the initial extract", "setting": "Pediococcus acidilactici", "value": 77, "unit": "%"}, {"measurement": "content in the metabolized extract with respect to the glycosylated forms (100%) in the initial extract", "setting": "[2]", "value": 33, "unit": "%"}, {"measurement": "content in the metabolized extract with respect to the glycosylated forms (100%) in the initial extract", "setting": "[3]", "value": 65, "unit": "%"}]}, {"molecule": "O=c1c(-c2ccc(O)cc2)coc2cc(O)cc(O)c12", "note": "[Genistein, genistein]", "values": [{"measurement": "content in the metabolized extract with respect to the glycosylated forms (100%) in the initial extract", "setting": "Enterococcus faecium; Enterococcus faecium culture, cultured 24, 48 and 72 hours, time not given", "value": 80, "unit": "%"}, {"measurement": "content in the metabolized extract with respect to the glycosylated forms (100%) in the initial extract", "setting": "[1]; Lactobacillus acidophilus culture, time not given", "value": 83, "unit": "%"}, {"measurement": "content in the metabolized extract with respect to the glycosylated forms (100%) in the initial extract", "setting": "Lactobacillus brevis; Lactobacillus brevis culture, time not given", "value": 81, "unit": "%"}, {"measurement": "content in the metabolized extract with respect to the glycosylated forms (100%) in the initial extract", "setting": "Lactobacillus casei; Lactobacillus casei culture, time not given", "value": 13, "unit": "%"}, {"measurement": "content in the metabolized extract with respect to the glycosylated forms (100%) in the initial extract", "setting": "Lactobacillus plantarum; Lactobacillus plantarum culture, time not given", "value": 44, "unit": "%"}, {"measurement": "content in the metabolized extract with respect to the glycosylated forms (100%) in the initial extract", "setting": "Lactobacillus rhamnosus; Lactobacillus rhamnosus culture, time not given", "value": 85, "unit": "%"}, {"measurement": "content in the metabolized extract with respect to the glycosylated forms (100%) in the initial extract", "setting": "Pediococcus acidilactici; Pediococcus acidilactici culture, time not given", "value": 30, "unit": "%"}, {"measurement": "content in the metabolized extract with respect to the glycosylated forms (100%) in the initial extract", "setting": "[2]; Propionibacterium acidipropionici culture, time not given", "value": 72, "unit": "%"}, {"measurement": "content in the metabolized extract with respect to the glycosylated forms (100%) in the initial extract", "setting": "[3]; Streptococcus thermophilus culture, time not given", "value": 25, "unit": "%"}, {"measurement": "estrogenic activity", "setting": "type II (β) receptors", "value": 0.084}, {"measurement": "osteoclastic activity", "setting": "osteoclastic activity", "value": "inhibits osteoclastic activity"}]}, {"molecule": "O=c1c(-c2ccc(O)cc2)coc2cc(O[C@@H]3O[C@H](CO)[C@@H](O)[C@H](O)[C@H]3O)cc(O)c12", "note": "[Genistine, genistine]", "values": [{"measurement": "content in the metabolized extract with respect to the glycosylated forms (100%) in the initial extract", "setting": "Enterococcus faecium; Enterococcus faecium, 72 h", "value": 5.5, "unit": "%"}, {"measurement": "content in the metabolized extract with respect to the glycosylated forms (100%) in the initial extract", "setting": "[1]; Lactobacillus acidophilus", "value": 6.5, "unit": "%"}, {"measurement": "content in the metabolized extract with respect to the glycosylated forms (100%) in the initial extract", "setting": "Lactobacillus brevis; Lactobacillus brevis", "value": 2, "unit": "%"}, {"measurement": "content in the metabolized extract with respect to the glycosylated forms (100%) in the initial extract", "setting": "Lactobacillus casei; Lactobacillus casei", "value": 85, "unit": "%"}, {"measurement": "content in the metabolized extract with respect to the glycosylated forms (100%) in the initial extract", "setting": "Lactobacillus plantarum; Lactobacillus plantarum", "value": 53, "unit": "%"}, {"measurement": "content in the metabolized extract with respect to the glycosylated forms (100%) in the initial extract", "setting": "Lactobacillus rhamnosus; Lactobacillus rhamnosus", "value": 5, "unit": "%"}, {"measurement": "content in the metabolized extract with respect to the glycosylated forms (100%) in the initial extract", "setting": "Pediococcus acidilactici; Pediococcus acidilactici", "value": 63, "unit": "%"}, {"measurement": "content in the metabolized extract with respect to the glycosylated forms (100%) in the initial extract", "setting": "[2]; Propionibacterium acidipropionici", "value": 12, "unit": "%"}, {"measurement": "content in the metabolized extract with respect to the glycosylated forms (100%) in the initial extract", "setting": "[3]; Streptococcus thermophilus", "value": 73, "unit": "%"}]}, {"molecule": "Oc1ccc([C@H]2COc3cc(O)ccc3C2)cc1", "note": "[equol, reference compound]", "values": [{"measurement": "estrogenic activity", "setting": "type II (β) receptors", "value": 0.61}]}, {"molecule": "CC(C)Oc1ccc2c(=O)c(-c3ccccc3)coc2c1", "note": "[ipriflavone]", "values": [{"measurement": "bone gain", "setting": "bone; 500 to 600 mg per day, 40 menopausal women suffering from osteoporosis", "value": "bone gain at the level of L1-L5, with a return to normal in 12 months"}, {"measurement": "bone losses", "setting": "bone; women being treated with LHRH agonists", "value": "possible to avoid bone losses"}]}, {"molecule": "Lactobacillus acidophilus", "values": [{"measurement": "ranking of strains by isoflavone-metabolizing activity", "setting": "[4]", "value": "the most active strains"}]}, {"molecule": "estradiol [reference compound]", "values": [{"measurement": "estrogenic activity", "setting": "type II (β) receptors", "value": 100}]}]}
